Test results published in PubChem BioAssay AID2060483 (Molecular Pharmacology Branch, DTP, NCI, 2025).

Tested on: K24384-001-R-PDC complex spheroids, viability
Assay: Anticancer human tumor K24384-001-R-PDC patient-derived pancreatic adenocarcinoma cell line growth inhibition [GQUAD]
Settings: for IC50: curve of first compound; for viability, T/C: stronger effect = lower value
In short: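 Tumor cells were grown as complex spheroids with HUVEC endothelial cells and mesenchymal stem cells as stroma. G-quadruplex stabilizers were combined with targeted agents over half-log dilutions from near the clinical Cmax, or from 10 microM.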

[1] = second compound 0.0316 µM, first compound 0.0316 µM
[2] = second compound 0.0316 µM, first compound 0.1 µM
[3] = second compound 0.0316 µM, first compound 0.316 µM
[4] = second compound 0.0316 µM, first compound 1 µM
[5] = second compound 0.0316 µM, first compound 3.16 µM
[6] = second compound 0.0316 µM, first compound 10 µM
[7] = second compound 0.1 µM, first compound 0.0316 µM
[8] = second compound 0.1 µM, first compound 0.1 µM
[9] = second compound 0.1 µM, first compound 0.316 µM
[10] = second compound 0.1 µM, first compound 1 µM
[11] = second compound 0.1 µM, first compound 3.16 µM
[12] = second compound 0.1 µM, first compound 10 µM
[13] = second compound 0.316 µM, first compound 0.0316 µM
[14] = second compound 0.316 µM, first compound 0.1 µM
[15] = second compound 0.316 µM, first compound 0.316 µM
[16] = second compound 0.316 µM, first compound 1 µM
[17] = second compound 0.316 µM, first compound 3.16 µM
[18] = second compound 0.316 µM, first compound 10 µM
[19] = second compound 1 µM, first compound 0.0316 µM
[20] = second compound 1 µM, first compound 0.1 µM
[21] = second compound 1 µM, first compound 0.316 µM
[22] = second compound 1 µM, first compound 1 µM
[23] = second compound 1 µM, first compound 3.16 µM
[24] = second compound 1 µM, first compound 10 µM
[25] = second compound 3.16 µM, first compound 0.0316 µM
[26] = second compound 3.16 µM, first compound 0.1 µM
[27] = second compound 3.16 µM, first compound 0.316 µM
[28] = second compound 3.16 µM, first compound 1 µM
[29] = second compound 3.16 µM, first compound 3.16 µM
[30] = second compound 3.16 µM, first compound 10 µM
[31] = second compound 10 µM, first compound 0.0316 µM
[32] = second compound 10 µM, first compound 0.1 µM
[33] = second compound 10 µM, first compound 0.316 µM
[34] = second compound 10 µM, first compound 1 µM
[35] = second compound 10 µM, first compound 3.16 µM
[36] = second compound 10 µM, first compound 10 µM
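Also: spheroids exposed to compounds for seven days.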

## COc1cccc2c1C(=O)c1c(O)c3c(c(O)c1C2=O)CC(O)(C(=O)CO)CC3OC1CC(N)C(O)C(C)O1 (stereo not drawn) + CN(C)c1ccc(Nc2c3ccc(NC(=O)CCN4CCCC4)cc3nc3cc(NC(=O)CCN4CCCC4)ccc23)cc1
Second compound 0.0316 µM
  IC50: 215 nM
Second compound 0.1 µM
  IC50: 183 nM
Second compound 0.316 µM
  IC50: 120 nM
Second compound 1 µM
  IC50: 148 nM
Second compound 3.16 µM
  IC50: 169 nM
Second compound 10 µM
  IC50: 244 nM
[1]
  viability, T/C: 94.6%
[2]
  viability, T/C: 57.3%
[3]
  viability, T/C: 54.4%
[4]
  viability, T/C: 18.4%
[5]
  viability, T/C: 4.88%
[6]
  viability, T/C: 3.9%
[7]
  viability, T/C: 92.5%
[8]
  viability, T/C: 63.3%
[9]
  viability, T/C: 38.2%
[10]
  viability, T/C: 19.1%
[11]
  viability, T/C: 5.65%
[12]
  viability, T/C: 3.5%
[13]
  viability, T/C: 79.4%
[14]
  viability, T/C: 51.2%
[15]
  viability, T/C: 35.3%
[16]
  viability, T/C: 20.8%
[17]
  viability, T/C: 6.33%
[18]
  viability, T/C: 4.16%
[19]
  viability, T/C: 90.7%
[20]
  viability, T/C: 53.8%
[21]
  viability, T/C: 39.3%
[22]
  viability, T/C: 20.4%
[23]
  viability, T/C: 5.66%
[24]
  viability, T/C: 4.15%
[25]
  viability, T/C: 83.2%
[26]
  viability, T/C: 56.4%
[27]
  viability, T/C: 39.2%
[28]
  viability, T/C: 29.3%
[29]
  viability, T/C: 5.72%
[30]
  viability, T/C: 5.1%
[31]
  viability, T/C: 80.9%
[32]
  viability, T/C: 101%
[33]
  viability, T/C: 38%
[34]
  viability, T/C: 35%
[35]
  viability, T/C: 9.76%
[36]
  viability, T/C: 2.73%

## COc1cccc2c1C(=O)c1c(O)c3c(c(O)c1C2=O)CC(O)(C(=O)CO)CC3OC1CC(N)C(O)C(C)O1 (stereo not drawn) + Cc1[nH]c2ccc(F)cc2c1-c1nc2c3cccnc3c3ncccc3c2[nH]1
Second compound 0.0316 µM
  IC50: 191 nM
Second compound 0.1 µM
  IC50: 204 nM
Second compound 0.316 µM
  IC50: 203 nM
Second compound 1 µM
  IC50: 219 nM
Second compound 3.16 µM
  IC50: 126 nM
Second compound 10 µM
  IC50: 80.1 nM
[1]
  viability, T/C: 89.8%
[2]
  viability, T/C: 70%
[3]
  viability, T/C: 33.1%
[4]
  viability, T/C: 17.6%
[5]
  viability, T/C: 5.95%
[6]
  viability, T/C: 4.77%
[7]
  viability, T/C: 78.8%
[8]
  viability, T/C: 64.8%
[9]
  viability, T/C: 39.2%
[10]
  viability, T/C: 25.6%
[11]
  viability, T/C: 8.24%
[12]
  viability, T/C: 4.61%
[13]
  viability, T/C: 74.2%
[14]
  viability, T/C: 63.4%
[15]
  viability, T/C: 40.9%
[16]
  viability, T/C: 22.4%
[17]
  viability, T/C: 6.31%
[18]
  viability, T/C: 4.4%
[19]
  viability, T/C: 85.4%
[20]
  viability, T/C: 75.3%
[21]
  viability, T/C: 32.2%
[22]
  viability, T/C: 27.8%
[23]
  viability, T/C: 7.66%
[24]
  viability, T/C: 4.24%
[25]
  viability, T/C: 70.6%
[26]
  viability, T/C: 55.1%
[27]
  viability, T/C: 32%
[28]
  viability, T/C: 28%
[29]
  viability, T/C: 7.01%
[30]
  viability, T/C: 1.96%
[31]
  viability, T/C: 60.5%
[32]
  viability, T/C: 49.3%
[33]
  viability, T/C: 28.1%
[34]
  viability, T/C: 20%
[35]
  viability, T/C: 5.65%
[36]
  viability, T/C: 1.85%

## O=C(NO)c1cnc(N2CCN(S(=O)(=O)c3ccc4ccccc4c3)CC2)nc1 + CN(C)c1ccc(Nc2c3ccc(NC(=O)CCN4CCCC4)cc3nc3cc(NC(=O)CCN4CCCC4)ccc23)cc1
Second compound 0.0316 µM
  IC50: 603 nM
Second compound 0.1 µM
  IC50: 511 nM
Second compound 0.316 µM
  IC50: 553 nM
Second compound 1 µM
  IC50: 554 nM
Second compound 3.16 µM
  IC50: 475 nM
Second compound 10 µM
  IC50: 476 nM
[1]
  viability, T/C: 111%
[2]
  viability, T/C: 91.6%
[3]
  viability, T/C: 83.1%
[4]
  viability, T/C: 25.2%
[5]
  viability, T/C: 0.22%
[6]
  viability, T/C: 0.18%
[7]
  viability, T/C: 111%
[8]
  viability, T/C: 97.7%
[9]
  viability, T/C: 70.1%
[10]
  viability, T/C: 23.5%
[11]
  viability, T/C: 0.13%
[12]
  viability, T/C: 0.14%
[13]
  viability, T/C: 108%
[14]
  viability, T/C: 126%
[15]
  viability, T/C: 74.3%
[16]
  viability, T/C: 23.4%
[17]
  viability, T/C: 0.14%
[18]
  viability, T/C: 0.18%
[19]
  viability, T/C: 107%
[20]
  viability, T/C: 117%
[21]
  viability, T/C: 73.6%
[22]
  viability, T/C: 24.3%
[23]
  viability, T/C: 0.16%
[24]
  viability, T/C: 0.16%
[25]
  viability, T/C: 105%
[26]
  viability, T/C: 103%
[27]
  viability, T/C: 65.3%
[28]
  viability, T/C: 20.6%
[29]
  viability, T/C: 0.14%
[30]
  viability, T/C: 0.16%
[31]
  viability, T/C: 105%
[32]
  viability, T/C: 92.3%
[33]
  viability, T/C: 65.1%
[34]
  viability, T/C: 24.7%
[35]
  viability, T/C: 0.22%
[36]
  viability, T/C: 0.22%

## CC1COCCN1c1cc(C2(S(C)(=N)=O)CC2)nc(-c2ccnc3[nH]ccc23)n1 (stereo not drawn) + Cc1[nH]c2ccc(F)cc2c1-c1nc2c3cccnc3c3ncccc3c2[nH]1
Second compound 0.0316 µM
  IC50: 1610 nM
Second compound 0.1 µM
  IC50: 1710 nM
Second compound 0.316 µM
  IC50: 1500 nM
Second compound 1 µM
  IC50: 1990 nM
Second compound 3.16 µM
  IC50: 2040 nM
Second compound 10 µM
  IC50: 1250 nM
[1]
  viability, T/C: 82.5%
[2]
  viability, T/C: 94.6%
[3]
  viability, T/C: 112%
[4]
  viability, T/C: 64.2%
[5]
  viability, T/C: 37.2%
[6]
  viability, T/C: 22.6%
[7]
  viability, T/C: 87.1%
[8]
  viability, T/C: 95.7%
[9]
  viability, T/C: 107%
[10]
  viability, T/C: 66.6%
[11]
  viability, T/C: 34.6%
[12]
  viability, T/C: 27.5%
[13]
  viability, T/C: 81.6%
[14]
  viability, T/C: 85.5%
[15]
  viability, T/C: 101%
[16]
  viability, T/C: 58.8%
[17]
  viability, T/C: 38.5%
[18]
  viability, T/C: 29.2%
[19]
  viability, T/C: 87.5%
[20]
  viability, T/C: 84.1%
[21]
  viability, T/C: 87.1%
[22]
  viability, T/C: 63.6%
[23]
  viability, T/C: 41.5%
[24]
  viability, T/C: 31.6%
[25]
  viability, T/C: 71.6%
[26]
  viability, T/C: 72.6%
[27]
  viability, T/C: 72.9%
[28]
  viability, T/C: 61%
[29]
  viability, T/C: 43%
[30]
  viability, T/C: 26%
[31]
  viability, T/C: 56.5%
[32]
  viability, T/C: 64.4%
[33]
  viability, T/C: 58.5%
[34]
  viability, T/C: 54.3%
[35]
  viability, T/C: 32.5%
[36]
  viability, T/C: 16.5%
